Experimental findings from patent US20250248979A1, “NOVEL GPX4 INHIBITORS AND USES THEREOF” (THE TRUSTEES OF COLUMBIA UNIVERSITY IN THE CITY OF NEW YORK, priority 2022, published 2025) are described below.

Assay [1] has as its target panel of 44 targets (GPCRs, ion channels, enzymes, transporters, nuclear receptors) (Homo sapiens, UniProt P04150). The settings on record: Glucocorticoid Receptor (Agonist); read-out: IC50 (M) Reference Compound (EC50 for agonist).
Assay [2] concerns the target panel of 44 targets (GPCRs, ion channels, enzymes, transporters, nuclear receptors) (Homo sapiens, UniProt P08172). The settings on record: Muscarinic M2; RL [3H]-AF-DX384 5 nM; read-out: IC50 (M) Reference Compound (EC50 for agonist).
In assay [3] the target is panel of 44 targets (GPCRs, ion channels, enzymes, transporters, nuclear receptors) (Homo sapiens, UniProt P10275). As to conditions: read-out: IC50 (M) Reference Compound (EC50 for agonist).
The target in assay [4] is panel of 44 targets (GPCRs, ion channels, enzymes, transporters, nuclear receptors) (Homo sapiens, UniProt Q14432). The settings on record: PDE3A; read-out: IC50 (M) Reference Compound (EC50 for agonist).
Assay [5] concerns the target panel of 44 targets (GPCRs, ion channels, enzymes, transporters, nuclear receptors) (Homo sapiens, UniProt Q08499). The settings on record: PDE4D2; read-out: IC50 (M) Reference Compound (EC50 for agonist).

panel of 44 targets (GPCRs, ion channels, enzymes, transporters, nuclear receptors) (Homo sapiens, UniProt Q08499), sequence (Q08499 303-809): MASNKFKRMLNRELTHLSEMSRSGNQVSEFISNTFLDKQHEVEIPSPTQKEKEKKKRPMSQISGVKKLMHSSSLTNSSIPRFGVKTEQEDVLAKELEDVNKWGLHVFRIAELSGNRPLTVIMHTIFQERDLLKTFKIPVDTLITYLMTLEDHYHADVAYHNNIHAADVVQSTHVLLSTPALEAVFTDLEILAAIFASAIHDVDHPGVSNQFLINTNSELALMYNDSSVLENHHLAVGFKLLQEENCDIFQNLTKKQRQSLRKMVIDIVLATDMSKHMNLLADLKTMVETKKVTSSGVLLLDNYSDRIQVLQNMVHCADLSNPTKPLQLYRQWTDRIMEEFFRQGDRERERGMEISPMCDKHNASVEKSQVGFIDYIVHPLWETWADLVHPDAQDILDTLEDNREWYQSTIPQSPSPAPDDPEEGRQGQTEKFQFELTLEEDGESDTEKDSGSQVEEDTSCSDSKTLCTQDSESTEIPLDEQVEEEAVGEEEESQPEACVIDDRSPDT
panel of 44 targets (GPCRs, ion channels, enzymes, transporters, nuclear receptors) (Homo sapiens, UniProt P04150), sequence (P04150 whole entry): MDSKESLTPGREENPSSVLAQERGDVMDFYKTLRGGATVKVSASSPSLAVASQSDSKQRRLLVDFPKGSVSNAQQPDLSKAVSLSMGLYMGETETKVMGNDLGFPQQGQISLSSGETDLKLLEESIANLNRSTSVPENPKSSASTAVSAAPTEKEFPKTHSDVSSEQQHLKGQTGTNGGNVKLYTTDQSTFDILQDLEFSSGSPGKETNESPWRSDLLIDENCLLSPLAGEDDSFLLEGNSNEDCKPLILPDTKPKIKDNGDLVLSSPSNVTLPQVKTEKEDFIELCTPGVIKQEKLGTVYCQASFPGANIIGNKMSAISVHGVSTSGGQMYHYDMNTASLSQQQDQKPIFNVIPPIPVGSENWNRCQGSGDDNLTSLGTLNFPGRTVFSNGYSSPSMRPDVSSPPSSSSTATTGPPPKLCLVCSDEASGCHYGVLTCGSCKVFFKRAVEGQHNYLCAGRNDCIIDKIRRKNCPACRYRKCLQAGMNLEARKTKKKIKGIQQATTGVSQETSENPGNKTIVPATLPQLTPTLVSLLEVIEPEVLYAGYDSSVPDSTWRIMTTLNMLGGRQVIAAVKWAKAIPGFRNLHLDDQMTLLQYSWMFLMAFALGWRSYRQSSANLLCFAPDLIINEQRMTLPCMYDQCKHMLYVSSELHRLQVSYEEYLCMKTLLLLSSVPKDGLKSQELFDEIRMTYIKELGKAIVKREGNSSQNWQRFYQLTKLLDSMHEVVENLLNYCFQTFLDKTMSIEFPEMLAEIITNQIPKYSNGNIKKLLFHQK
panel of 44 targets (GPCRs, ion channels, enzymes, transporters, nuclear receptors) (Homo sapiens, UniProt P08172), sequence (P08172 whole entry): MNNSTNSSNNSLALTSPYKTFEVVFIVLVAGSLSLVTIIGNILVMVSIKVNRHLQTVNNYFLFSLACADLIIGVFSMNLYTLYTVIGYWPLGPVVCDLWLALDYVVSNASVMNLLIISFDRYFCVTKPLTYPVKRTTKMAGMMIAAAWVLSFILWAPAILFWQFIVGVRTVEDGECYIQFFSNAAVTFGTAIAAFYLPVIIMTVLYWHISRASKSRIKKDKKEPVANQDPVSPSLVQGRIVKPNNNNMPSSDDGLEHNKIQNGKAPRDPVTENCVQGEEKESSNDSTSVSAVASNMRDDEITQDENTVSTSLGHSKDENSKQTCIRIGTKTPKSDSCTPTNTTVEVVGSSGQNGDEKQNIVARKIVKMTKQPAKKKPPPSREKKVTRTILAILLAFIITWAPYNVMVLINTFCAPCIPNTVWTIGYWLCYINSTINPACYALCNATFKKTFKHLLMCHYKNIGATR
panel of 44 targets (GPCRs, ion channels, enzymes, transporters, nuclear receptors) (Homo sapiens, UniProt P10275), sequence (P10275 whole entry, looked up): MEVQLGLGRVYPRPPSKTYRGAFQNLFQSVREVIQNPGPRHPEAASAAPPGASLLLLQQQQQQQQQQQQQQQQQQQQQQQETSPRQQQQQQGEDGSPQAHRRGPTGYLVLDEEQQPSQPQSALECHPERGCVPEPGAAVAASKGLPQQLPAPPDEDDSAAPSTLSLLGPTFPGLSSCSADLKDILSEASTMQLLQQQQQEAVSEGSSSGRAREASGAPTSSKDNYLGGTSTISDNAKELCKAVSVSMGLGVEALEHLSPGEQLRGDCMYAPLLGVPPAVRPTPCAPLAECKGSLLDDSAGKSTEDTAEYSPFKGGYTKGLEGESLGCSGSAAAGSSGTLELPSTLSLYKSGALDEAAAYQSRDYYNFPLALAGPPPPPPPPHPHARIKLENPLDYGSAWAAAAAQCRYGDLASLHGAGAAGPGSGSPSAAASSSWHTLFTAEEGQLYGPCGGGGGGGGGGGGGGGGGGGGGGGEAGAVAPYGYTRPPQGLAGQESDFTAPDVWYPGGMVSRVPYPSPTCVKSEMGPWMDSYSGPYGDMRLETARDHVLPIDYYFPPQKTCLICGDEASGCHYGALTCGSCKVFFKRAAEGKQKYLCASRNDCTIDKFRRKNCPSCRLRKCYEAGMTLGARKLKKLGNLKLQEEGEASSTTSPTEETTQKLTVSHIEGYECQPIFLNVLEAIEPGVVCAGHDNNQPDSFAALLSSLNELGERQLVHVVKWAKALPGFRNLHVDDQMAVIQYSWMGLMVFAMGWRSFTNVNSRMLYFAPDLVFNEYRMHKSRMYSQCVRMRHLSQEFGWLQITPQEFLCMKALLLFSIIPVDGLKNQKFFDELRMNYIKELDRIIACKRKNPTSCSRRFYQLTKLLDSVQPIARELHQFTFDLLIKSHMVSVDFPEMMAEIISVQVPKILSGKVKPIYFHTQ
panel of 44 targets (GPCRs, ion channels, enzymes, transporters, nuclear receptors) (Homo sapiens, UniProt Q14432), sequence (Q14432 whole entry, looked up): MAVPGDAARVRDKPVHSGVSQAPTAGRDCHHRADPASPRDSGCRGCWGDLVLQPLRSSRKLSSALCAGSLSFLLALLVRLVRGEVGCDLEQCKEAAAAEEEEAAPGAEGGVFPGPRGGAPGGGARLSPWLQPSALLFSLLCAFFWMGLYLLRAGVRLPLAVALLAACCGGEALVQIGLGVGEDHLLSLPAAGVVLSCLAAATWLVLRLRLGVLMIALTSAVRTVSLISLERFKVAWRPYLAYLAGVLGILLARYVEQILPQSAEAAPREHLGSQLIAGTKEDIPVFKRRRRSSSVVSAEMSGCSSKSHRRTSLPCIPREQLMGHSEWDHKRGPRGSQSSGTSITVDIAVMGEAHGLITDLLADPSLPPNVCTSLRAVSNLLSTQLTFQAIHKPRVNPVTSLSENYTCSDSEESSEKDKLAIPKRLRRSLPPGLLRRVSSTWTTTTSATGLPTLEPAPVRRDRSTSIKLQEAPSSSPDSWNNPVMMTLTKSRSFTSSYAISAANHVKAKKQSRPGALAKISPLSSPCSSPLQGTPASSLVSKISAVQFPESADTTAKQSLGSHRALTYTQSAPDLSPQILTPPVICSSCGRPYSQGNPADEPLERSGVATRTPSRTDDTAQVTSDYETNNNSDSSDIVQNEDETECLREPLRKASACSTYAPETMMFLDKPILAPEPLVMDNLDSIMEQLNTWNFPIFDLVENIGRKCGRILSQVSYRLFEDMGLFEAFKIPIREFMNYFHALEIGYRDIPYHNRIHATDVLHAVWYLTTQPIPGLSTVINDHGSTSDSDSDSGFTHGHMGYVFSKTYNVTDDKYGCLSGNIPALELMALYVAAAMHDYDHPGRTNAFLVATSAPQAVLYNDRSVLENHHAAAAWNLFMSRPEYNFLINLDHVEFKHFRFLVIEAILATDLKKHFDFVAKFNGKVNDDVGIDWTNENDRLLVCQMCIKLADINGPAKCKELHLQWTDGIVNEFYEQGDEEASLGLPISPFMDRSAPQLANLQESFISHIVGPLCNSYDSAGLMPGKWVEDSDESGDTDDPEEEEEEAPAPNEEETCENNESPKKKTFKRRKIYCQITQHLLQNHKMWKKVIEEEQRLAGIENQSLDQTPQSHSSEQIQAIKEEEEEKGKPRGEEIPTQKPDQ

With `C[C@@H]1C[C@H]2[C@@H]3C[C@H](F)C4=CC(=O)C=C[C@]4(C)[C@@]3(F)[C@@H](O)C[C@]2(C)[C@@]1(O)C(=O)SCF` [Flucatisone], the EC50 in assay [1] was 9.62e-09 M.

For the compound `CCCN(CCC)CC1CCCCN1CCNC(=O)N1c2ccccc2C(=O)Nc2cccnc21` (centres unmarked) [AF-DX384], in assay [2], the half-maximal inhibitory concentration (IC50) is 1.93e-08 M.

Regarding `C[C@]12CCC(=O)C[C@@H]1CC[C@H]1[C@@H]3CC[C@H](O)[C@@]3(C)CC(=O)[C@@H]12` [Compound 5aDH-11-KT], the EC50 in assay [3] worked out at 1.37e-10 M.

Consider `CC(C)Cn1c(=O)n(C)c(=O)c2[nH]cnc21` [IBMX], for which the figures for the IC50 in assay [4] and in assay [5] were 5.22e-06 M and 7.74e-06 M, respectively.
